Experimental data: PubChem BioAssay AID504501 (Sanford-Burnham Center for Chemical Genomics, 2011)

Target: Sentrin-specific protease 8 (Homo sapiens) (UniProt Q96LD8)
Assay: inhibition of human SENP8 cleavage activity – biochemical, luminescence, SAR follow-up (AID 504501)
Details: recombinant SENP8 enzyme, luminescent protease assay

Sequence of Sentrin-specific protease 8 (Homo sapiens) (Q96LD8 whole entry, looked up): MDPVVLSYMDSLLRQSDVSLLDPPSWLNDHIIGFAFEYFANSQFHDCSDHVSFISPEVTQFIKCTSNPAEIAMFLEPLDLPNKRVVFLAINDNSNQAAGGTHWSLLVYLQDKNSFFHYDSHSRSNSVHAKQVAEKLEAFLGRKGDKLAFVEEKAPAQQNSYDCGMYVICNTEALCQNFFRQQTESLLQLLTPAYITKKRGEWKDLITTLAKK

Structure (SMILES)	IC50 [µM]
Fc1ccc(COc2ccc(C(=S)N3CCCC3)cc2)cc1	2.5
Cc1cccc(C(=O)Nc2scc(-c3ccc(Br)cc3)c2C(=O)O)c1	3.75
